One may read the IC50 as the concentration at which inhibition is half-maximal.

Where two headings read alike, the source gives them in different places.

The test concerns the target T1, human cardiac ion channel proteins hKir3.1/Kir3.4 (Homo sapiens, UniProt P48544+P48549).
T1 construct: expressed in transfected cells
T1 sequence (P48549 1-501): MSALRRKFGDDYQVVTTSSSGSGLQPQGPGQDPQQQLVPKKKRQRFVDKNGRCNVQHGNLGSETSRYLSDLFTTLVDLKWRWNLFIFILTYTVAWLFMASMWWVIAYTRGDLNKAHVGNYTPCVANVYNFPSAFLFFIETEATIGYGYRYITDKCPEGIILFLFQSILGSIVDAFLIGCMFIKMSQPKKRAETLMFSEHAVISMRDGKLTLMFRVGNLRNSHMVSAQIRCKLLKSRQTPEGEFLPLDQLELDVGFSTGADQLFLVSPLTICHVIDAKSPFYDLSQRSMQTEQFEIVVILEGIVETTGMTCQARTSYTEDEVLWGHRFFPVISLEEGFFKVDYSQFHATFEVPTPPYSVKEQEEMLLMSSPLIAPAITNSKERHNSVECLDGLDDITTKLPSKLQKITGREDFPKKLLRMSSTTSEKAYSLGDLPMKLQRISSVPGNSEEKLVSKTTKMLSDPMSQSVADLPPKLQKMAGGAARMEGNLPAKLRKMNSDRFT
T1 sequence (P48544 1-419): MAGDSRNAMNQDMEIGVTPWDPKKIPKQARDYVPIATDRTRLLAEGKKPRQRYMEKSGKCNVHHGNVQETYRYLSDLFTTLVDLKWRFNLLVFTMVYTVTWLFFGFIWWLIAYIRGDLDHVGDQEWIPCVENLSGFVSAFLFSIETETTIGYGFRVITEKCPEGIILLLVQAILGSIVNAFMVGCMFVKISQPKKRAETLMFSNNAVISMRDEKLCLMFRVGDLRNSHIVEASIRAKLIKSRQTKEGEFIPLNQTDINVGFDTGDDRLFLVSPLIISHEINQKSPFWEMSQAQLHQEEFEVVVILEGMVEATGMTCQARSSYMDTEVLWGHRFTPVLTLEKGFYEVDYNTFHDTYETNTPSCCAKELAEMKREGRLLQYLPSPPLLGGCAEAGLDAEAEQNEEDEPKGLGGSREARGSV
Nature of the test: Atomic Absorption Screening (AAS) Rb efflux assay of hKir3.1/Kir3.4 block, carbachol/high K+ stimulated, 10-pt or 7-pt CR. As to conditions: AAS Rb efflux, CHO-K1 cells expressing hKir3.1/Kir3.4. It counts as cell-based. The essentials: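 CHO-K1 cells stably co-expressing human Kir3.1/Kir3.4 were Rb-loaded for 3 h at 37° C, preincubated with compound 5 min at RT, then stimulated 10 min with 10 μM carbachol plus 20 mM KCl (final). Supernatant Rb was measured by atomic absorption. Compounds ran at 0.003–67 μmol/L (10-pt) or 0.037–27 μmol/L (7-pt), threefold dilutions; IC50s are means of >4 or >3 replicates respectively.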

[1] abbreviates: 7-pt CR (0.037 to 27 μmol/L), mean of >3 replicates, read-out: IKACh IC50 7-pt CR, AAS.
Setting [2] is: 10-pt CR (0.003 to 67 μmol/L), mean of >4 replicates, read-out: IKACh IC50 10-pt CR, AAS.

Regarding `CC(C)[C@@H](CN1CC[C@H](O)C1)N(C)C(=O)c1ccc(F)cc1Cl` [Example 10.1, (3S)-1-((S)-2-(2-Chloro-4-fluoro-N-methylbenzamido)-3-methylbutyl)-3-hydroxypyrrolidinium 2,3-dihydroxysuccinate], the 50% inhibitory concentration (IC50) reads like this: under setting [1], 3.7 µM; under setting [2], 6.1 µM.

Consider `CCN(C(=O)c1ccc(Cl)cc1)[C@H](CN1CCC1)C(C)C` [Example 11, (S)—N-(1-(Azetidin-1-yl)-3-methylbutan-2-yl)-4-chloro-N-ethylbenzamide], for which the IC50 under setting [2] came to 5.6 µM.

Turning to `CN(C(=O)c1ccc(F)c(Cl)c1)[C@H](CN1CCCC1)C1CC1` [Example 13.1, (S)-3-Chloro-N-(1-cyclopropyl-2-(pyrrolidin-1-yl)ethyl)-4-fluoro-N-methylbenzamide], the IC50 under setting [2] was found to be 2.5 µM.

Turning to `Cc1ccc(C(=O)N(C)[C@H](CN2CCCC2)C2CC2)cc1C` [Example 13.2, (S)-N-(1-Cyclopropyl-2-(pyrrolidin-1-yl)ethyl)-N,3,4-trimethyl-benzamide], the half-maximal inhibitory concentration (IC50) under setting [2] was 3.9 µM.

As to `CC(C)[C@@H](CCN1CCCC1)N(C)C(=O)c1cccc(Cl)c1` [Example 13.3, (R)-3-Chloro-N-methyl-N-(4-methyl-1-(pyrrolidin-1-yl)pentan-3-yl)benzamide], the IC50 under setting [2] stood at 19 µM.

On to `Cc1cc(C(=O)N(C)[C@H](CCN2CCCC2)C(C)C)ccc1F` [Example 13.4, (R)-4-Fluoro-N,3-dimethyl-N-(4-methyl-1-(pyrrolidin-1-yl)pentan-3-yl)benzamide], for which the half-maximal inhibitory concentration (IC50) under setting [2] came to 19 µM.

For the compound `Cc1cc(C(=O)N(C)[C@H](CN2CCCC2)[C@@H](C)OC(C)(C)C)ccc1F` [Example 14, N-((2R,3R)-3-Tert-butoxy-1-(pyrrolidin-1-yl)butan-2-yl)-4-fluoro-N,3-dimethylbenzamide], under setting [2], the half-maximal inhibitory concentration (IC50) was found to be 16 µM.

`CCN(C(=O)c1ccc(Br)cc1)[C@H](CN1CCCC1)C(C)C` [Example 15.1, (S)-4-Bromo-N-ethyl-N-(3-methyl-1-(pyrrolidin-1-yl)butan-2-yl)benzamide]: the IC50 under setting [2] turned out to be 11 µM.

For the compound `CCN(C(=O)c1ccc(F)c(C)c1)[C@H](CN1CCCC1)C(C)C` [Example 15.2, (S)-N-Ethyl-4-fluoro-3-methyl-N-(3-methyl-1-(pyrrolidin-1-yl)butan-2-yl)benzamide], the concentration for half-maximal inhibition (IC50) under setting [2] was determined as 18 µM.

Take `CCN(C(=O)c1ccc(Cl)cc1)[C@H](CN1CCCC1)C(C)C` [Example 15.3, (S)-4-Chloro-N-ethyl-N-(3-methyl-1-(pyrrolidin-1-yl)butan-2-yl)benzamide]: the IC50 under setting [2] stood at 7.4 µM.

Consider `COCCN(C(=O)c1ccc(Cl)cc1)[C@H](CN1CCCC1)C(C)C` [Example 15.4, (S)-4-Chloro-N-(2-methoxyethyl)-N-(3-methyl-1-(pyrrolidin-1-yl)butan-2-yl)benzamide], for which the half-maximal inhibitory concentration (IC50) under setting [2] came out at 5.7 µM.

Consider `COCCN(C(=O)c1ccc(Br)cc1)[C@H](CN1CCCC1)C(C)C` [Example 15.5, (S)-4-Bromo-N-(2-methoxyethyl)-N-(3-methyl-1-(pyrrolidin-1-yl)butan-2-yl)benzamide], for which, under setting [2], the IC50 was 2.3 µM.

For `CC(C)[C@@H](CN1CCCC(F)(F)C1)N(C)C(=O)c1ccc(F)c(Cl)c1` [Example 16.1, (S)-3-Chloro-N-(1-(3,3-difluoropiperidin-1-yl)-3-methylbutan-2-yl)-4-fluoro-N-methylbenzamide], the concentration for half-maximal inhibition (IC50) under setting [2] is 17 µM.

Take `CC(C)[C@@H](CN1CCCC(F)(F)C1)N(C)C(=O)c1ccc(F)c(C(F)(F)F)c1` [Example 16.2, (S)—N-(1-(3,3-Difluoropiperidin-1-yl)-3-methylbutan-2-yl)-4-fluoro-N-methyl-3-(trifluoromethyl)benzamide]: the IC50 under setting [2] stood at 15 µM.

On to `Cc1ccc(C(=O)N(C)[C@H](CN2CCCC(F)(F)C2)C(C)C)cc1C` [Example 16.3, (S)—N-(1-(3,3-Difluoropiperidin-1-yl)-3-methylbutan-2-yl)-N,3,4-trimethylbenzamide], for which the IC50 under setting [2] was found to be 11 µM.

For `COc1cc(C(=O)N(C)[C@H](CN2CCCC(F)(F)C2)C(C)C)ccc1C` [Example 16.4, (S)—N-(1-(3,3-Difluoropiperidin-1-yl)-3-methylbutan-2-yl)-3-methoxy-N,4-dimethylbenzamide], under setting [2], the IC50 turned out to be 18 µM.

Take `CC(C)[C@@H](CN1CCCC(F)(F)C1)N(C)C(=O)c1ccc(Br)cc1` [Example 16.5, (S)-4-Bromo-N-(1-(3,3-difluoropiperidin-1-yl)-3-methylbutan-2-yl)-N-methyl-benzamide]: under setting [2], the concentration for half-maximal inhibition (IC50) stood at 11 µM.

Regarding `CN(C(=O)c1ccc(Cl)cc1)C(C)(C)CN1CCCC1` [Example 16.6, 4-Chloro-N-methyl-N-(2-methyl-1-(pyrrolidin-1-yl)propan-2-yl)benzamide], under setting [2], the concentration for half-maximal inhibition (IC50) amounted to 20 µM.

Take `CN(C(=O)c1ccc(Br)cc1)C(C)(C)CN1CCCC1` [Example 16.7, 4-Bromo-N-methyl-N-(2-methyl-1-(pyrrolidin-1-yl)propan-2-yl)benzamide]: the IC50 under setting [2] came out at 14 µM.

`CC(C)[C@@H](CN1CCCC1)N(C)C(=O)c1cc(F)cc(C(F)(F)F)c1` [Example 16.8, (S)-3-Fluoro-N-methyl-N-(3-methyl-1-(pyrrolidin-1-yl)butan-2-yl)-5-(trifluoromethyl)benzamide]: the half-inhibitory concentration (IC50) under setting [1] was 8 µM.

As for `CC(C)[C@@H](CN1CCCC1)N(C)C(=O)c1cc(F)cc(F)c1F` [Example 16.9, (S)-2,3,5-Trifluoro-N-methyl-N-(3-methyl-1-(pyrrolidin-1-yl)butan-2-yl)benzamide], the IC50 was 3.9 µM under setting [1] and 14 µM under setting [2].

Regarding `CC(C)[C@@H](CN1CCCC1)N(C)C(=O)c1cccc(C(F)(F)F)c1` [Example 16.10, (S)—N-Methyl-N-(3-methyl-1-(pyrrolidin-1-yl)butan-2-yl)-3-(trifluoromethyl)benzamide], the concentration for half-maximal inhibition (IC50) under setting [1] worked out at 2.6 µM.

On to `COc1cc(C(=O)N(C)[C@H](CN2CCCC2)C(C)C)ccc1F` [Example 16.11, (S)-4-Fluoro-3-methoxy-N-methyl-N-(3-methyl-1-(pyrrolidin-1-yl)butan-2-yl)benzamide], for which, under setting [1], the IC50 was determined as 11 µM.

On to `CC(C)[C@@H](CN1CCCC1)N(C)C(=O)c1cc(F)cc(F)c1` [Example 16.12, (S)-3,5-Difluoro-N-methyl-N-(3-methyl-1-(pyrrolidin-1-yl)butan-2-yl)benzamide], for which the IC50 was 23 µM under setting [1] and 15 µM under setting [2].

As to `Cc1c(F)cccc1C(=O)N(C)[C@H](CN1CCCC1)C(C)C` [Example 16.13, (S)-3-Fluoro-N,2-dimethyl-N-(3-methyl-1-(pyrrolidin-1-yl)butan-2-yl)benzamide], the 50% inhibitory concentration (IC50) was 5.3 µM under setting [1] and 14 µM under setting [2].

In the case of `Cc1ccc(C(=O)N(C)[C@H](CN2CCCC2)C(C)C)cc1` [Example 16.14, (S)—N,4-Dimethyl-N-(3-methyl-1-(pyrrolidin-1-yl)butan-2-yl)benzamide], the IC50 under setting [1] is 6.7 µM.

Regarding `CC(C)[C@@H](CN1CCCC1)N(C)C(=O)c1ccc(OC(F)(F)F)cc1` [Example 16.15, (S)—N-Methyl-N-(3-methyl-1-(pyrrolidin-1-yl)butan-2-yl)-4-(tri-fluoromethoxy)benzamide], the IC50 under setting [1] is 2.5 µM.

`CC(C)[C@@H](CN1CCCC1)N(C)C(=O)c1cccc(OC(F)(F)F)c1` [Example 16.16, (S)—N-Methyl-N-(3-methyl-1-(pyrrolidin-1-yl)butan-2-yl)-3-(tri-fluoromethoxy)benzamide]: the concentration for half-maximal inhibition (IC50) under setting [1] was found to be 2.6 µM.

The values above are taken from US8361998B2, “Compounds and their use as IKACh blockers” (AstraZeneca AB, priority 2010, dated 2013).
